The record followed here is paper PMC8286840, “Identifying SARS-CoV-2 antiviral compounds by screening for small molecule inhibitors of Nsp3 papain-like protease” (Biochemical Journal, 2021).

The target of experiment [1] is T1, SARS-CoV-2 PLpro (nsp3 1564–1878) (Severe acute respiratory syndrome coronavirus 2, UniProt P0DTD1). As to the kind of experiment: biochemical. Also on record: FRET-quenched peptide (Pro3) cleavage by PLpro, 10 min pre-incubation, slope over 20 min, normalised to no-compound control. The following applies: low concentration screen, read-out: % of control remaining.

Experiment [2] has as its target T1, SARS-CoV-2 PLpro (nsp3 1564–1878). As to the kind of experiment: biochemical. The following applies: high concentration screen, read-out: % of control remaining. Also noted: FRET-quenched peptide (Pro3) cleavage by PLpro, 10 min pre-incubation, slope over 20 min, normalised to no-compound control.

Structures can show the parent of a compound that is named as a salt. Where two headings read alike, the source gives them in different places.

In the case of `CC/C=C\C/C=C\C/C=C\C/C=C\CCCCC(=O)O` [6(Z), 9(Z), 12(Z), 15(Z)-Octadecatetraenoic acid], the remaining activity at 1.25 µM in experiment [1] (Well no.=4398) is 101%. Besides, the remaining activity at 3.75 µM in experiment [2] (Well no.=4398) was 97.4%.
In the case of `C=C1CC[C@H](O)C/C1=C/C=C1\CCC[C@]2(C)[C@@H]([C@H](C)CCCC(C)C)CC[C@@H]12` [Vitamin D3 (Cholecalciferol)], the remaining activity at 1.25 µM in experiment [1] (Well no.=4702) came out at 99.7%. The remaining activity at 3.75 µM in experiment [2] (Well no.=4702) came out at 100%.
For `CC(C)(Sc1cc(C(C)(C)C)c(O)c(C(C)(C)C)c1)Sc1cc(C(C)(C)C)c(O)c(C(C)(C)C)c1` [Probucol], the remaining activity at 1.25 µM in experiment [1] (Well no.=4083) was determined as 98.5%. In addition, the remaining activity at 3.75 µM in experiment [2] (Well no.=4083) worked out at 105%.
As to `COc1cnc(-n2cnc(C)n2)c2[nH]cc(C(=O)C(=O)N3CCN(C(=O)c4ccccc4)CC3)c12` [Temsavir], the remaining activity at 1.25 µM in experiment [1] (Well no.=7886) came out at 97.2%. Further, the remaining activity at 3.75 µM in experiment [2] (Well no.=7886) is 98%.
On to `CC[N+](CC)(CC)CC` [Tetraethylammonium chloride], for which the remaining activity at 1.25 µM in experiment [1] (Well no.=1475) turned out to be 93.2%. For the same molecule, in experiment [2] (Well no.=1475), the remaining activity at 3.75 µM worked out at 89%.
On to `NCCC(=O)N[C@@H](Cc1cnc[nH]1)C(=O)O` [L-Carnosine], for which the remaining activity at 1.25 µM in experiment [1] (Well no.=7017) is 112%. Moreover, the remaining activity at 3.75 µM in experiment [2] (Well no.=7017) came to 111%.
`N#C/C(=C\c1ccc(O)c(O)c1)C(=O)NCCCNC(=O)/C(C#N)=C/c1ccc(O)c(O)c1` [Tyrphostin AG 537]: the remaining activity at 1.25 µM in experiment [1] (Well no.=1289) was found to be 103%. Moreover, the remaining activity at 3.75 µM in experiment [2] (Well no.=1289) was 99.7%.
`NCCCCN(Cc1nc2ccccc2[nH]1)[C@H]1CCCc2cccnc21` [AMD-070 (hydrochloride)]: the remaining activity at 1.25 µM in experiment [1] (Well no.=7093) came out at 106%. Moreover, the remaining activity at 3.75 µM in experiment [2] (Well no.=7093) stood at 100%.
Turning to `Cc1nnc(SCC2=C(C(=O)O)N3C(=O)[C@@H](NC(=O)Cn4cnnn4)[C@H]3SC2)s1` [Cefazolin sodium], the remaining activity at 1.25 µM in experiment [1] (Well no.=178) came out at 101%. Besides, the remaining activity at 3.75 µM in experiment [2] (Well no.=178) turned out to be 99.4%.
In the case of `O=c1cc(-c2ccc(O)cc2)oc2cc(O[C@@H]3O[C@H](CO)[C@@H](O)[C@H](O)[C@H]3O)cc(O)c12` [Apigenin-7-glucoside], the remaining activity at 1.25 µM in experiment [1] (Well no.=3635) was 97.8%. The remaining activity at 3.75 µM in experiment [2] (Well no.=3635) turned out to be 93.3%.
Consider `CN(CC(=O)O)C(=N)N` [Creatine], for which the remaining activity at 1.25 µM in experiment [1] (Well no.=7457) turned out to be 101%. In addition, in experiment [2] (Well no.=7457), the remaining activity at 3.75 µM was 103%.
As to `c1ccc(CN(Cc2ncc[nH]2)c2ccccc2)cc1` [Antozoline hydrochloride], the remaining activity at 1.25 µM in experiment [1] (Well no.=108) was 101%. The remaining activity at 3.75 µM in experiment [2] (Well no.=108) is 103%.
Take `CC[C@@]1(O)C(=O)OCc2c1cc1n(c2=O)Cc2cc3ccccc3nc2-1` [Camptothecin]: the remaining activity at 1.25 µM in experiment [1] (Well no.=1664) was found to be 98.5%; in experiment [1] (Well no.=3127), 96.8%. Further, the figures for the remaining activity at 3.75 µM in experiment [2] (Well no.=1664) and in experiment [2] (Well no.=3127) were 84.5% and 91.9%, respectively.
As to `CCCCC[C@H](O)CC(=O)CCc1ccc(O)c(OC)c1` [Gingerol], in experiment [1] (Well no.=3319), the remaining activity at 1.25 µM is 97%. Moreover, the remaining activity at 3.75 µM in experiment [2] (Well no.=3319) came to 101%.
Take `CCOC(=O)C1=C(N)Oc2ccc(Br)cc2[C@H]1[C@H](C#N)C(=O)OCC` [HA14-1]: the results for the remaining activity at 1.25 µM in experiment [1] (Well no.=5007) and in experiment [1] (Well no.=6296) were 105% and 101%, respectively. Moreover, the remaining activity at 3.75 µM in experiment [2] (Well no.=5007) was found to be 101%; in experiment [2] (Well no.=6296), 102%.
Take `S=C(Nc1ccccc1)Nc1nccs1` [1-Phenyl-3-(2-thiazolyl)-2-thiourea]: in experiment [1] (Well no.=858), the remaining activity at 1.25 µM came out at 99.5%. Further, the remaining activity at 3.75 µM in experiment [2] (Well no.=858) is 96.6%.
For the molecule `Cc1nc2ccc(NC(=O)Nc3ccnc4cccnc34)cc2o1` [SB-334867 (free base)], the remaining activity at 1.25 µM in experiment [1] (Well no.=6999) was found to be 101%. In addition, in experiment [2] (Well no.=6999), the remaining activity at 3.75 µM turned out to be 104%.
For the molecule `NC(=O)CI` [Iodoacetamide], the remaining activity at 1.25 µM in experiment [1] (Well no.=430) amounted to 104%. The remaining activity at 3.75 µM in experiment [2] (Well no.=430) amounted to 96.4%.
Regarding `CS(=O)(=O)c1ccc(-c2cc(Br)sc2-c2ccc(F)cc2)cc1` [DuP 697], in experiment [1] (Well no.=499), the remaining activity at 1.25 µM turned out to be 105%. In experiment [2] (Well no.=499), the remaining activity at 3.75 µM was determined as 107%.
